Results published in patent publication US9938301B2, “Dihydropyrimido fused ring derivative as HBV inhibitor” (QILU PHARMACEUTICAL CO., LTD., priority 2014, dated 2018).
Read-outs that look alike come from different tables or passages of the source.

System: HBV DNA in HepG2.2.15 cells
Assay: HBV in vitro assay quantitive qPCR test
Format: cell-based
Conditions: Hepatitis B virus
Experimental: • 1 Purpose of the test: • The content of HBV DNA in HepG2.2.15 cells was detected by real time quantitive qPCR test to evaluate an inhibitory action of the compound on HBV with an EC50 value of the compound as an indicator. • 2 Experimental materials: • 2.1 Cell lines: HepG2.2.15 Cells • HepG2.2.15 cell culture media (DMEM/F12, Invitrogen-11330057; 10% serum, Invitrogen-10099141; 100 units/ml Penicillin and 10 μg/ml Streptomycin, Invitrogen-15140122; 1% non-essential amino acid, Invitrogen-1140076; 2 mM L-GLUTAMINE, Invitrogen-25030081; 300 μg/ml Geneticin, Invitrogen-10131027 • 2.2 Reagents: • trypsin (Invitrogen-25300062) • DPBS (Hyclone-SH30028.01B) • DMSO (Sigma-D2650-100ML) • High-Throughput DNA Purification Kit (QIAamp 96 DNA Blood Kit, Qiagen-51162) • Quantitative Fast Start Universal Probe Reagent (FastStart Universal Probe Master, Roche-04914058001) • 2.3 Materials and Instruments: • 96-well cell culture plate (Corning-3599) • CO2 Incubator (HERA-CELL-240) • Optical Sealing Membrane (ABI-4311971) • Quantitative PCR 96-well Plate (Applied Biosystems-4306737) • Fluorescent Quantitative PCR Instrument (Applied Biosystems-7500 real time PCR system) • 3. Testing steps and Methods: • 3.1 HepG2.2.15 cells (4×10^4 cells/well) were planted into a 96-well plate, and at 37° C., 5% CO2 cultured overnight. • 3.2 On Day 2, the compounds were diluted in totally 8 concentrations with a dilution gradient of three times. The compounds at different concentrations were added into the culture wells in duplicate. The final concentration of DMSO in the culture media was 1%. 1 μM GLS4 was used as 100% inhibition control; 1% DMSO as 0% inhibition control. • 3.3 On Day 5, replacing with the fresh culture media containing the compound was performed. • 3.4 On Day 8, the culture media in the culture wells was collected, and DNA was extracted with a High-Throughput DNA Purification Kit (Qiagen-51162), See Specification of the product for specific steps. • 3.5 Preparation of PCR Reaction Mixture was shown in Table 1:
• 3.6 To each well of a 96-well PCR plate was added 15 μl reaction mixture, and then to each well was added 10 μl sample DNA or HBV DNA standard. • 3.7 The reaction conditions of PCR were: heating at 95° C. for 10 minutes; then at 95° C. denaturing for 15 seconds, and at 60° C. extending for 1 minute, totally 40 cycles. • 3.8 Data Analysis: • 3.8.1 The inhibition percentage was calculated: % Inh.=[1−(DNA copy number in sample−DNA copy number in 1 μM GLS4)/(DNA copy number in DMSO control−DNA copy number in 1 μM GLS4)]×100. • 3.8.2 Calculating EC50: the concentration of the compound for 50% inhibition of HBV (EC50) was calculated by using GraphPad Prism Software. • 4 Testing Results • The testing results were shown in Table 3: […]

[1] = qPCR assay, HepG2.2.15 cells, read-out: Concentration for 50% inhibition of HBV (EC50)value
[2] = summary list of target compounds, Examples 166-220 (values of Table 3), HepG2.2.15 cells, read-out: BIOACTIVITY (inhibitory actions on HBV DNA, EC50)
[3] = HepG2.2.15, read-out: BIOACTIVITY (inhibitory actions on HBV DNA, EC50)
[4] = HepG2.2.15, read-out: Concentration for 50% inhibition of HBV (EC50)value

Structure (SMILES)	EC50 [1]	EC50 [2]	EC50 [3]	EC50 [4]
COC(=O)C1=C2C[C@@H](NS(C)(=O)=O)CN2C(c2nccs2)=N[C@@H]1c1ccc(F)cc1Cl [Example 178]	0.1 to 0.5 µM	0.1 to 0.5 µM	–	–
COC(=O)C1=C2C[C@H](NS(N)(=O)=O)CN2C(c2nccs2)=N[C@@H]1c1ccc(F)c(F)c1Cl [Example 197]	1 to 5 µM	1 to 5 µM	–	–
COC(=O)C1=C2C[C@H](NS(N)(=O)=O)CN2C(c2nccs2)=N[C@H]1c1cccc(F)c1Cl [Example 218]	< 0.1 µM	< 0.1 µM	–	–
COC(=O)C1=C2C[C@H](NS(=O)(=O)O)CN2C(c2nccs2)=N[C@H]1c1ccc(F)cc1Cl [Example 175]	1 to 5 µM	1 to 5 µM	–	–
COC(=O)C1=C2C[C@H](NS(C)(=O)=O)CN2C(c2ncc(F)cc2F)=N[C@H]1c1ccc(F)cc1Cl [Example 191]	< 0.1 µM	< 0.1 µM	–	–
COC(=O)C1=C2C[C@H](NC(=O)C3CC3)CN2C(c2nccs2)=N[C@H]1c1ccc(F)cc1Cl [Example 173]	< 0.1 µM	< 0.1 µM	–	–
COC(=O)C1=C2C[C@H](NS(=O)(=O)NC(C)C)CN2C(c2nccs2)=N[C@H]1c1ccc(F)c(F)c1F [Example 209]	< 0.1 µM	< 0.1 µM	–	–
COC(=O)C1=C2C[C@H](N3CCCS3(=O)=O)CN2C(c2nccs2)=N[C@H]1c1ccc(F)cc1Cl [Example 187]	< 0.1 µM	< 0.1 µM	–	–
COC(=O)C1=C2C[C@H](NS(N)(=O)=O)CN2C(c2nccs2)=N[C@H]1c1ccc(F)c(F)c1F [Example 193]	< 0.1 µM	< 0.1 µM	–	–
COC(=O)C1=C2C[C@H](NS(C)(=O)=O)CN2C(c2nccs2)=N[C@H]1c1ccc(F)cc1F [Example 205]	< 0.1 µM	< 0.1 µM	–	–
COC(=O)C1=C2C[C@H](N(CC#N)S(C)(=O)=O)CN2C(c2nccs2)=N[C@H]1c1ccc(F)cc1Cl [Example 182]	< 0.1 µM	< 0.1 µM	–	–
CNS(=O)(=O)N[C@H]1CC2=C(C(=O)OC)[C@H](c3ccc(F)c(F)c3F)N=C(c3nccs3)N2C1 [Example 206]	< 0.1 µM	< 0.1 µM	–	–
COC(=O)C1=C2C[C@H](N(C(C)C)S(C)(=O)=O)CN2C(c2nccs2)=N[C@H]1c1ccc(F)cc1Cl [Example 184]	0.1 to 0.5 µM	0.1 to 0.5 µM	–	–
CCN([C@H]1CC2=C(C(=O)OC)[C@H](c3ccc(F)cc3Cl)N=C(c3nccs3)N2C1)S(C)(=O)=O [Example 183]	< 0.1 µM	< 0.1 µM	–	–
COC(=O)C1=C2C[C@H](N(C)S(C)(=O)=O)CN2C(c2nccs2)=N[C@H]1c1ccc(F)cc1Cl [Example 169]	< 0.1 µM	< 0.1 µM	–	–
COC(=O)C1=C2C[C@H](NS(=O)(=O)c3ccccn3)CN2C(c2nccs2)=N[C@H]1c1ccc(F)cc1Cl [Example 200]	< 0.1 µM	< 0.1 µM	–	–
COC(=O)C1=C2C[C@H](NS(=O)(=O)CCN)CN2C(c2nccs2)=N[C@H]1c1ccc(F)cc1Cl [Example 171]	< 0.1 µM	< 0.1 µM	–	–
COC(=O)C1=C2C[C@H](NS(C)(=O)=O)CN2C(c2nccs2)=N[C@H]1c1ccc(F)cc1C [Example 180]	< 0.1 µM	< 0.1 µM	–	–
COC(=O)C1=C2C[C@H](NC(=O)OC(C)(C)C)CN2C(c2nccs2)=N[C@H]1c1cccc(F)c1Cl [Example 217]	< 0.1 µM	1 to 5 µM	–	–
COC(=O)C1=C2C[C@H](NS(C)(=O)=O)CN2C(c2nccs2)=N[C@H]1c1ccc(F)cn1 [Example 194]	1 to 5 µM	1 to 5 µM	–	–
COC(=O)C1=C2C[C@H](N(CCO)S(C)(=O)=O)CN2C(c2nccs2)=N[C@H]1c1ccc(F)cc1Cl [Example 188]	< 0.1 µM	< 0.1 µM	–	–
COC(=O)C1=C2C[C@H](N(O)S(C)(=O)=O)CN2C(c2nccs2)=N[C@H]1c1ccc(F)cc1Cl [Example 196]	1 to 5 µM	1 to 5 µM	–	–

Structure (SMILES)	EC50 [1]	EC50 [2]	EC50 [3]	EC50 [4]
COC(=O)C1=C2C[C@H](NS(C)(=O)=O)CN2C(c2nccs2)=N[C@@H]1c1ccc(F)c(F)c1F [Example 168]	0.1 to 0.5 µM	0.1 to 0.5 µM	–	–
COC(=O)C1=C2C[C@H](N(C)S(N)(=O)=O)CN2C(c2nccs2)=N[C@H]1c1ccc(F)cc1Cl [Example 192]	< 0.1 µM	< 0.1 µM	–	–
COC(=O)C1=C2C[C@H](N(CC(=O)O)S(C)(=O)=O)CN2C(c2nccs2)=N[C@H]1c1ccc(F)cc1Cl [Example 186]	1 to 5 µM	1 to 5 µM	–	–
CCS(=O)(=O)N[C@H]1CC2=C(C(=O)OC)[C@H](c3cccc(F)c3Cl)N=C(c3nccs3)N2C1 [Example 213]	< 0.1 µM	< 0.1 µM	–	–
COC(=O)C1=C2C[C@H](NS(=O)(=O)OC)CN2C(c2nccs2)=N[C@H]1c1ccc(F)cc1Cl [Example 185]	< 0.1 µM	< 0.1 µM	–	–
COC(=O)C1=C2C[C@@H](NS(C)(=O)=O)CN2C(c2nccs2)=N[C@H]1c1ccc(F)cc1Cl [Example 181]	< 0.1 µM	< 0.1 µM	–	–
COC(=O)C1=C2C[C@H](NS(=O)(=O)c3cccnc3)CN2C(c2nccs2)=N[C@H]1c1ccc(F)cc1Cl [Example 199]	< 0.1 µM	< 0.1 µM	–	–
CCCCNS(=O)(=O)N[C@H]1CC2=C(C(=O)OC)[C@H](c3ccc(F)c(F)c3F)N=C(c3nccs3)N2C1 [Example 214]	< 0.1 µM	< 0.1 µM	–	–
COC(=O)C1=C2C[C@H](NS(=O)(=O)N3CCC3)CN2C(c2nccs2)=N[C@H]1c1ccc(F)c(F)c1F [Example 212]	0.1 to 0.5 µM	0.1 to 0.5 µM	–	–
COC(=O)C1=C2C[C@H](NS(C)(=O)=O)CN2C(c2nccs2)=N[C@H]1c1ccc(F)c(F)c1F [Example 167]	< 0.1 µM	< 0.1 µM	–	–
COC(=O)C1=C2C[C@H](NP(=O)(OC)OC)CN2C(c2nccs2)=N[C@H]1c1ccc(F)cc1Cl [Example 190]	–	–	0.1 to 0.5 µM	0.1 to 0.5 µM
COC(=O)C1=C2C[C@H](NS(C)(=O)=O)CN2C(c2nccs2)=N[C@H]1c1ccc(F)cc1C(F)(F)F [Example 203]	0.1 to 0.5 µM	0.1 to 0.5 µM	–	–
CCOP(=O)(N[C@H]1CC2=C(C(=O)OC)[C@H](c3ccc(F)cc3Cl)N=C(c3nccs3)N2C1)OCC [Example 174]	–	–	0.1 to 0.5 µM	0.1 to 0.5 µM
COC(=O)C1=C2C[C@H](N(CC(F)F)S(C)(=O)=O)CN2C(c2nccs2)=N[C@H]1c1ccc(F)cc1Cl [Example 179]	0.1 to 0.5 µM	0.1 to 0.5 µM	–	–
COC(=O)C1=C2C[C@H](NS(=O)(=O)C(C)(C)C)CN2C(c2nccs2)=N[C@H]1c1ccc(F)cc1Cl [Example 170]	< 0.1 µM	< 0.1 µM	–	–
COC(=O)C1=C2C[C@H](NS(N)(=O)=O)CN2C(c2nccs2)=N[C@H]1c1ccc(F)c(F)c1Cl [Example 198]	< 0.1 µM	< 0.1 µM	–	–
COC(=O)C1=C2C[C@H](NS(=O)(=O)c3ccccc3F)CN2C(c2nccs2)=N[C@H]1c1ccc(F)cc1Cl [Example 204]	< 0.1 µM	< 0.1 µM	–	–
COC(=O)C1=C2C[C@H](NS(C)(=O)=O)CN2C(c2ncc(C)s2)=N[C@H]1c1ccc(F)cc1Cl [Example 202]	0.1 to 0.5 µM	0.1 to 0.5 µM	–	–
COC(=O)C1=C2C[C@H](NS(C)(=O)=O)CN2C(c2nccs2)=N[C@H]1c1ccc(F)c(F)c1Cl [Example 201]	< 0.1 µM	< 0.1 µM	–	–
COC(=O)C1=C2C[C@H](NS(=O)(=O)N(C)C)CN2C(c2nccs2)=N[C@H]1c1cccc(F)c1Cl [Example 215]	< 0.1 µM	< 0.1 µM	–	–
COC(=O)C1=C2C[C@H](NS(=O)(=O)NC(C)C)CN2C(c2nccs2)=N[C@H]1c1cccc(F)c1Cl [Example 216]	< 0.1 µM	< 0.1 µM	–	–
COC(=O)C1=C2C[C@H](NS(=O)(=O)N(C)C)CN2C(c2nccs2)=N[C@H]1c1ccc(F)c(F)c1F [Example 207]	< 0.1 µM	< 0.1 µM	–	–
